molecular target: T1, Human TRPC6 (Homo sapiens, UniProt Q9Y210); assay: Evaluation of TRPC6 channel inhibitory activity (1), FLIPR Calcium 5 Assay Kit, OAG stimulation (Compound Nos. 1-1293); assay type: cell-based; details: Human TRPC6 stably-expressing cells, OAG 30 μM, FLIPR Calcium 5 Assay Kit; read-out: Inhibitory activity (pIC50 class) (converted)
T1 construct: expressed in transfected cells
T1 sequence (Q9Y210 1-931): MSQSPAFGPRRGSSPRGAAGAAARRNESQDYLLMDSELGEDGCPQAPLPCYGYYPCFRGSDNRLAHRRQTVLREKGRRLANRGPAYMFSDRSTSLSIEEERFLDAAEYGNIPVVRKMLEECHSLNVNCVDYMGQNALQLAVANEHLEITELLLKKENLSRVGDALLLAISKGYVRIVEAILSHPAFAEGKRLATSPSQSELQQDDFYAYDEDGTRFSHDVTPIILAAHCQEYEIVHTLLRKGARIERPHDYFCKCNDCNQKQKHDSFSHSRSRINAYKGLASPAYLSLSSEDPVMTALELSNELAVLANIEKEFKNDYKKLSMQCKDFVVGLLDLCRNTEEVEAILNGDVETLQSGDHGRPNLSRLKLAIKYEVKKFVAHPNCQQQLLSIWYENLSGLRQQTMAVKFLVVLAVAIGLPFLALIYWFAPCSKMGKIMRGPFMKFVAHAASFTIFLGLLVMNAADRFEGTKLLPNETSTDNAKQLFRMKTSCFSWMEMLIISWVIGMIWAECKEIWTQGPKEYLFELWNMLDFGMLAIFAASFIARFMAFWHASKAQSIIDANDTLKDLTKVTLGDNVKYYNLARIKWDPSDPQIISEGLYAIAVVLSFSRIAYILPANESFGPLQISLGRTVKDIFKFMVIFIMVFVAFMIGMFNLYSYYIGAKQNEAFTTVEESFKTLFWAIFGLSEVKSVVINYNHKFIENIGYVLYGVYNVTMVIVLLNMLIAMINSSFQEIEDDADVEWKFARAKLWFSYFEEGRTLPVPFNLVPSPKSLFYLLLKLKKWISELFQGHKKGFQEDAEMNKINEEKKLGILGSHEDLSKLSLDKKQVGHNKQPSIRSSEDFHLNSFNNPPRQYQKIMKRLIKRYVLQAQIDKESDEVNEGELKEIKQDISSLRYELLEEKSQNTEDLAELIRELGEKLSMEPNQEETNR
How it was run: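 Stable human TRPC6 line; fluorescent Ca2+ dye loading, then 20 min compound exposure before 30 μM OAG trigger. Peak-minus-baseline signal converted to % inhibition against untreated and unstimulated wells; potency given as pIC50 band.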

Row | IC50 [nM] | Compound
1 | < 10 | Cn1nc(-c2ccccn2)cc1Oc1cc(C#N)ccc1-c1ncc(CN)cn1 [compound 394, 4-[5-(aminomethyl)pyrimidin-2-yl]-3-(2-methyl-5-pyridin-2-ylpyrazol-3-yl)oxybenzonitrile]
2 | 10 to 1000 | Cn1nc(-c2ccccn2)cc1Oc1cc(C#N)ccc1-c1ccc(C(C)(C)N)cn1 [compound 395, 4-[5-(2-aminopropan-2-yl)pyridin-2-yl]-3-(2-methyl-5-pyridin-2-ylpyrazol-3-yl)oxybenzonitrile]
3 | < 10 | CC(N)c1ccc(-c2ccc(C#N)cc2Oc2cc(-c3ccccn3)nn2C)nc1 (stereo not shown) [compound 396, 4-[5-(1-aminoethyl)pyridin-2-yl]-3-(2-methyl-5-pyridin-2-ylpyrazol-3-yl)oxybenzonitrile]
4 | 10 to 1000 | Cc1cc(Oc2cc(C#N)ccc2-c2ccc(C(C)(C)N)cn2)cc(N2CCOCC2)n1 [compound 397, 4-[5-(2-aminopropan-2-yl)pyridin-2-yl]-3-(2-methyl-6-morpholin-4-ylpyridin-4-yl)oxybenzonitrile]
5 | < 10 | Cc1cc(Oc2cc(C#N)ccc2-c2ccc(C(C)N)cn2)cc(N2CCOCC2)n1 (stereo not shown) [compound 398, 4-[5-(1-aminoethyl)pyridin-2-yl]-3-(2-methyl-6-morpholin-4-ylpyridin-4-yl)oxybenzonitrile]
6 | < 10 | CCOc1cc(Oc2cc(C#N)ccc2-c2ccc([C@H](O)CN)cn2)n(C)n1 [compound 399, 4-[5-[(1S)-2-amino-1-hydroxyethyl]pyridin-2-yl]-3-(5-ethoxy-2-methylpyrazol-3-yl)oxybenzonitrile]
7 | 10 to 1000 | Cn1nc(C2CC2)cc1Oc1cc(C#N)ccc1-c1ccc(C(C)(C)N)cn1 [compound 400, 4-[5-(2-aminopropan-2-yl)pyridin-2-yl]-3-(5-cyclopropyl-2-methylpyrazol-3-yl)oxybenzonitrile]
8 | < 10 | CC(N)c1ccc(-c2ccc(C#N)cc2Oc2cc(C3CC3)nn2C)nc1 (stereo not shown) [compound 401, 4-[5-(1-aminoethyl)pyridin-2-yl]-3-(5-cyclopropyl-2-methylpyrazol-3-yl)oxybenzonitrile]
9 | < 10 | Cn1nc(-c2cccc(F)c2)cc1Oc1cc(C#N)ccc1-c1ncc(CCN)cn1 [compound 402, 4-[5-(2-aminoethyl)pyrimidin-2-yl]-3-[5-(3-fluorophenyl)-2-methylpyrazol-3-yl]oxybenzonitrile]
10 | < 10 | Cn1nc(-c2cccc(F)c2)cc1Oc1cc(C#N)ccc1-c1ccc([C@H](O)CN)cn1 [compound 403, 4-[5-[(1S)-2-amino-1-hydroxyethyl]pyridin-2-yl]-3-[5-(3-fluorophenyl)-2-methylpyrazol-3-yl]oxybenzonitrile]
11 | < 10 | Cn1nc(C(C)(C)C)cc1Oc1cc(C#N)ccc1-c1ccc([C@H](O)CN)cn1 [compound 405, 4-[5-[(1S)-2-amino-1-hydroxyethyl]pyridin-2-yl]-3-(5-tert-butyl-2-methylpyrazol-3-yl)oxybenzonitrile]
12 | < 10 | Cn1nc(C(C)(C)C)cc1Oc1cc(C#N)ccc1-c1ncc([C@H](O)CN)cn1 [compound 406, 4-[5-[(1S)-2-amino-1-hydroxyethyl]pyrimidin-2-yl]-3-(5-tert-butyl-2-methylpyrazol-3-yl)oxybenzonitrile]
13 | < 10 | CC(C)n1nc(C2CC2)cc1Oc1cc(C#N)ccc1-c1ccc([C@H](O)CN)cn1 [compound 407, 4-[5-[(1S)-2-amino-1-hydroxyethyl]pyridin-2-yl]-3-(5-cyclopropyl-2-propan-2-ylpyrazol-3-yl)oxybenzonitrile]
14 | 10 to 1000 | CC(C)n1nc(C2CC2)cc1Oc1cc(C#N)ccc1-c1ncc([C@H](O)CN)cn1 [compound 408, 4-[5-[(1S)-2-amino-1-hydroxyethyl]pyrimidin-2-yl]-3-(5-cyclopropyl-2-propan-2-ylpyrazol-3-yl)oxybenzonitrile]
15 | 10 to 1000 | COC(=O)C(N)c1ccc(-c2ccc(C#N)cc2Oc2cc(C)nc(N3CCOCC3)c2)nc1 (stereo not shown) [compound 409, methyl 2-amino-2-[6-[4-cyano-2-(2-methyl-6-morpholin-4-ylpyridin-4-yl)oxyphenyl]pyridin-3-yl]acetate]
16 | 10 to 1000 | Cc1cc(Oc2cc(C#N)ccc2-c2ccc(C(N)C(=O)O)cn2)cc(N2CCOCC2)n1 (stereo not shown) [compound 410, 2-amino-2-[6-[4-cyano-2-(2-methyl-6-morpholin-4-ylpyridin-4-yl)oxyphenyl]pyridin-3-yl]acetic acid]

Row | IC50 [nM] | Compound
17 | 10 to 1000 | N#Cc1ccc(-c2ncc([C@H](O)CN)cn2)c(Oc2cc(C3CC3)nn2CC(F)(F)F)c1 [compound 411, 4-[5-[(1S)-2-amino-1-hydroxyethyl]pyrimidin-2-yl]-3-[5-cyclopropyl-2-(2,2,2-trifluoroethyl)pyrazol-3-yl]oxybenzonitrile]
18 | 10 to 1000 | Cc1cc(Oc2cc(C#N)ccc2-c2ccc(C(N)CO)cn2)cc(N2CCOCC2)n1 (stereo not shown) [compound 412, 4-[5-(1-amino-2-hydroxyethyl)pyridin-2-yl]-3-(2-methyl-6-morpholin-4-ylpyridin-4-yl)oxybenzonitrile]
19 | < 10 | Cn1nc(C(C)(C)C)cc1Oc1cc(C#N)ccc1-c1ccc(C(N)CO)cn1 (stereo not shown) [compound 413, 4-[5-(1-amino-2-hydroxyethyl)pyridin-2-yl]-3-(5-tert-butyl-2-methylpyrazol-3-yl)oxybenzonitrile]
20 | > 1000 | Cn1nc(C2CC2)cc1Oc1cc(C#N)ccc1-c1ccc2c(N)noc2c1 [compound 414, 4-(3-amino-1,2-benzoxazol-6-yl)-3-(5-cyclopropyl-2-methylpyrazol-3-yl)oxybenzonitrile]
21 | > 1000 | Cn1nc(-c2ccccc2)cc1Oc1cc(C#N)ccc1-c1ccc2c(N)noc2c1 [compound 415, 4-(3-amino-1,2-benzoxazol-6-yl)-3-(2-methyl-5-phenylpyrazol-3-yl)oxybenzonitrile]
22 | > 1000 | Cn1nc(C2CC2)cc1Oc1cc(C#N)ccc1-c1ccc(N)cn1 [compound 416, 4-(5-aminopyridin-2-yl)-3-(5-cyclopropyl-2-methylpyrazol-3-yl)oxybenzonitrile]
23 | > 1000 | Cn1nc(C2CC2)cc1Oc1cc(C#N)ccc1-c1ncc(N)cn1 [compound 417, 4-(5-aminopyrimidin-2-yl)-3-(5-cyclopropyl-2-methylpyrazol-3-yl)oxybenzonitrile]
24 | 10 to 1000 | Cc1cc(Oc2cc(C#N)ccc2-c2ccc(C(N)C(N)=O)cn2)cc(N2CCOCC2)n1 (stereo not shown) [compound 418, 2-amino-2-[6-[4-cyano-2-(2-methyl-6-morpholin-4-ylpyridin-4-yl)oxyphenyl]pyridin-3-yl]acetamide]
25 | > 1000 | Cc1cc(Oc2cc(C#N)ccc2-c2ncc(CCN3CCOCC3)cn2)cc(N2CCOCC2)n1 [compound 419, 3-(2-methyl-6-morpholin-4-ylpyridin-4-yl)oxy-4-[5-(2-morpholin-4-ylethyl)pyrimidin-2-yl]benzonitrile]
26 | 10 to 1000 | Cn1nc(C2CC2)cc1Oc1cc(C#N)ccc1-c1ncc(C(N)CO)cn1 (stereo not shown) [compound 420, 4-[5-(1-amino-2-hydroxyethyl)pyrimidin-2-yl]-3-(5-cyclopropyl-2-methylpyrazol-3-yl)oxybenzonitrile]
27 | 10 to 1000 | Cn1nc(C2CC2)cc1Oc1cc(C#N)ccc1-c1ccc(C(N)CO)cn1 (stereo not shown) [compound 421, 4-[5-(1-amino-2-hydroxyethyl)pyridin-2-yl]-3-(5-cyclopropyl-2-methylpyrazol-3-yl)oxybenzonitrile]
28 | 10 to 1000 | Cn1nc(C2CC2)cc1Oc1cc(C#N)ccc1-c1ccc(C(N)C#N)cn1 (stereo not shown) [compound 422, 4-[5-[amino(cyano)methyl]pyridin-2-yl]-3-(5-cyclopropyl-2-methylpyrazol-3-yl)oxybenzonitrile]
29 | 10 to 1000 | Cc1cc(Oc2cc(C#N)ccc2-c2ccc(C(N)C#N)cn2)cc(N2CCOCC2)n1 (stereo not shown) [compound 423, 4-[5-[amino(cyano)methyl]pyridin-2-yl]-3-(2-methyl-6-morpholin-4-ylpyridin-4-yl)oxybenzonitrile]
30 | > 1000 | Cn1nc(C2CC2)cc1Oc1cc(C#N)ccc1-c1ccc(CN2CCOCC2)cn1 [compound 424, 3-(5-cyclopropyl-2-methylpyrazol-3-yl)oxy-4-[5-(morpholin-4-ylmethyl)pyridin-2-yl]benzonitrile]
31 | > 1000 | Cc1cc(Oc2cc(C#N)ccc2-c2ccc(CN3CCOCC3)cn2)cc(N2CCOCC2)n1 [compound 425, 3-(2-methyl-6-morpholin-4-ylpyridin-4-yl)oxy-4-[5-(morpholin-4-ylmethyl)pyridin-2-yl]benzonitrile]
